Results reported in US9328138B2 (priority 2011, dated 2016).
pKi: −log10 of the molar value.

What was measured:
[1] = biological target: T1, HCV genotype 1b (BK) NS3 modified enzyme with a R155K mutation (Hepatitis C virus genotype 1b, UniProt P26663, R1181K); test: HCV NS3 protease time-resolved fluorescence (TRF) assay, genotype 1b R155K; type: biochemical; settings: Ki 1b R155K
T1 construct: HCV genotype 1b (BK) NS3 modified enzyme
In short: (§1)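 Time-resolved fluorescence, ex 340/em 615 nm, 400 μs delay; IC50 by four-parameter fit. Enzyme preincubated with compound 10 min, then TRF substrate 25 nM final added and reaction run 6 h at RT. Buffer HEPES pH 7.5 with NaCl, glycerol, Triton X-100, DTT, PEG 8000.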

[2] = biological target: HCV NS3 protease genotype 3a (3A-1) (Hepatitis C virus genotype 3a, UniProt Q81258); test: HCV NS3 protease time-resolved fluorescence (TRF) assay, genotype 3a; type: biochemical; settings: Ki 3a
In short: as §1

[3] = genotype 1b (BK) NS3 R155K, single value
[4] = first of two values printed in the cell (not explained)
[5] = second of two values printed in the cell (not explained)

SMILES | pKi [1, 3] | pKi [2] | pKi [1, 4] | pKi [1, 5]
C=C[C@@H]1C[C@]1(NC(=O)[C@@H]1C[C@@H]2CN1C(=O)[C@H](C(C)(C)C)NC(=O)O[C@@H]1C[C@H]1CCCCCc1c(nc3ccccc3c1OCC1CN(C)CCN1C)O2)C(=O)NS(=O)(=O)C1(C)CC1 (stereo partly drawn) [Example 140, (1ar,5S,8S,10R,22aR)-5-tert-butyl-17-[(1,4-dimethylpiperazin-2-yl)methoxy]-N-[(1R,2S)-2-ethenyl-1-{[(1-methylcyclopropyl)sulfonyl]carbamoyl}cyclopropyl]-3,6-dioxo-1,1a,3,4,5,6,9,10,18,19,20,21,22,22a-tetradecahydro-8H-7,10-methanocyclopropa[18,19][1,10,3,6] dioxadiazacyclononadecino [11,12-b]quinoline-8-carboxamide] | 9.59 | 8.52 |  | 
C=C[C@@H]1C[C@]1(NC(=O)[C@@H]1C[C@@H]2CN1C(=O)[C@H](C1CCCCC1)NC(=O)O[C@@H]1C[C@H]1CCCCCc1c(nc3ccccc3c1OCCN1CCOCC1)O2)C(=O)NS(=O)(=O)C1(C)CC1 [Example 122, (1aR,5S,8S,10R,22aR)-5-cyclohexyl-N-[(1R,2S)-2-ethenyl-1-{[(1-methylcyclopropyl)sulfonyl]carbamoyl}cyclopropyl]-17-[2-(morpholin-4-yl)ethoxy]-3,6-dioxo-1,1,a,3,4,5,6,9,10,18,19,20,21, 22,22a-tetradecahydro-8H-7,10-methanocyclopropa[18,19][1,10,3,6] dioxadiazacyclononadecino [11,12-b]quinoline-8-carboxamide] | 9.48 | 8.06 |  | 
C=C[C@@H]1C[C@]1(NC(=O)[C@@H]1C[C@@H]2CN1C(=O)[C@H](C1CCCCC1)NC(=O)O[C@@H]1C[C@H]1CCCCCc1c(nc3ccccc3c1OCCCN1CCN(C)CC1)O2)C(=O)NS(=O)(=O)C1(C)CC1 [Example 251, (1aR,5S,8S,10R,22aR)-5-cyclohexyl-N-[(1R,2S)-2-ethenyl-1-{[(1-methylcyclopropyl)sulfonyl]carbamoyl}cyclopropyl]-17-[3-(4-methylpiperazin-1-yl)propoxy]-3,6-dioxo-1,1a,3,4,5,6,9,10,18,19,20,21,22,22a-tetradecahydro-8H-7,10-methanocyclopropa[18,19][1,10,3,6]dioxadiazacyclononadecino[11,12-b]quinoline-8-carboxamide] |  | 8.94 | 10.82 | 10.29
C=C[C@@H]1C[C@]1(NC(=O)[C@@H]1C[C@@H]2CN1C(=O)[C@H](C1CCCCC1)NC(=O)O[C@@H]1C[C@H]1CCCCCc1c(nc3ccccc3c1OC1CC3COCC(C1)N3)O2)C(=O)NS(=O)(=O)C1(C)CC1 (stereo partly drawn) [Example 288, (1aR,5S,8S,10R,22aR)-5-cyclohexyl-N-[(1R,2S)-2-ethenyl-1-{[(1-methylcyclopropyl)sulfonyl]carbamoyl}cyclopropyl]-17-(3-oxa-9-azabicyclo[3.3.1]non-7-yloxy)-3,6-dioxo-1,1a,3,4,5,6,9,10,18,19,20,21,22,22a-tetradecahydro-8H-7,10-methanocyclopropa[18,19][1,10,3,6]dioxadiazacyclononadecino[11,12-b]quinoline-8-carboxamide] |  | 9.65 | 10.74 | 10.30
C=C[C@@H]1C[C@]1(NC(=O)[C@@H]1C[C@@H]2CN1C(=O)[C@H](C1CCCCC1)NC(=O)O[C@@H]1C[C@H]1CCCCCc1c(nc3ccccc3c1OC1CC3CCC(C1)N3)O2)C(=O)NS(=O)(=O)C1(C)CC1 (stereo partly drawn) [Example 283, potassium {[(1R,2S)-1-({[(1aR,5S,8S,10R,22aR)-17-(8-azabicyclo[3.2.1]oct-3-yloxy)-5-cyclohexyl-3,6-dioxo-1,1a,3,4,5,6,9,10,18,19,20,21,22,22a-tetradecahydro-8H-7,10-methanocyclopropa[18,19][1,10,3,6]dioxadiazacyclononadecino[11,12-b]quinolin-8-yl]carbonyl}amino)-2-ethenylcyclopropyl]carbonyl}[(1-methylcyclopropyl)sulfonyl]azanide] |  | 9.97 | 10.85 | 10.66
